Results from patent publication US5760027A, “Use of 7-alkylidene cephalosporins to inhibit elastase activity” (Research Corporation Technologies, Inc., priority 1996, dated 1998).

How the values were obtained:
Format in all cases: biochemical
[1] = biological target: porcine pancreatic elastase (PPE) (Sus scrofa, UniProt P00772); assay: IC50 determination, inhibition of porcine pancreatic elastase (PPE); settings: 5 min incubation with the inhibitor
[2] = biological target: T1, human leukocyte elastase (HLE) (Homo sapiens, UniProt P08246); assay: IC50 determination, inhibition of human leukocyte elastase (HLE), hydrolysis of N-(methoxysuccinyl)-L-alanyl-L-alanyl-L-prolyl-L-valine 4-nitroanilide at 410 nm; settings: 5 min incubation with the inhibitor; pH 7.5 Tris buffer
T1 construct: purchased Elastin Products Company, Inc. (Owensville, Mo.)
T1 sequence (P08246 30-267): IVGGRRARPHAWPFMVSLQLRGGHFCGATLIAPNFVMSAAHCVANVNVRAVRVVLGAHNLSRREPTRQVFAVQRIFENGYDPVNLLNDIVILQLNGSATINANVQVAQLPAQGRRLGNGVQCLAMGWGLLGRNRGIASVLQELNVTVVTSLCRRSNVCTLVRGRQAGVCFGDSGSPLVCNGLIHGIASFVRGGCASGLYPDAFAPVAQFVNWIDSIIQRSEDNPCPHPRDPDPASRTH

[3] = biological target: T2, HLE (Homo sapiens, UniProt P08246); assay: inhibition of HLE followed as a function of time (FIG. 1); settings: 10-fold molar excess of inhibitor, assayed at regular intervals (2 to 5 minutes)
T2 construct: chromogenic substrate MeOSuc-AAPV-pNA
T2 sequence (P08246 30-267): T1 sequence (P08246 30-267)
Protocol: To further document the rapid, irreversible inhibition of this enzyme at low, nearly stoichiometric ratios of inhibitor to enzyme, for selected compounds, this inhibition was followed as a function of time.
The data in FIG. 1 were generated by incubating the enzyme with a 10-fold molar excess of inhibitor. Assays of residual enzymatic activity of this mixture were assayed at regular intervals (2 to 5 minutes).

Chain of porcine pancreatic elastase (PPE) (P00772 27-266): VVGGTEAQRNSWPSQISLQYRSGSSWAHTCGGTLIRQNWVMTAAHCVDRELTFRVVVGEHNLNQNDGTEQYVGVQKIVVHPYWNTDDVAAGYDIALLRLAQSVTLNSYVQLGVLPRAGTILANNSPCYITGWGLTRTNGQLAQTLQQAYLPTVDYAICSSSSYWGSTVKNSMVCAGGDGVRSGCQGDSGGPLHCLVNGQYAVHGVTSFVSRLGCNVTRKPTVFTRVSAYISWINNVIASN

Compound | IC50 [1] [µM] | IC50 [2] [µM] | residual HLE activity / inhibition as a function of time [3]
CC(=O)OCC1=C(C(=O)OC(c2ccccc2)c2ccccc2)N2C(=O)C(=O)[C@H]2SC1 [Compound 2, Benzhydryl 7-oxocephalosporanate] | > 10 | > 10 | –
CC(=O)OCC1=C(C(=O)OC(c2ccccc2)c2ccccc2)N2C(=O)/C(=C/C#N)[C@H]2SC1 [Compound 30, Benzhydryl 7-[(Z)-cyanomethylene]cephalosporanate] | – | > 10 | –
[2H]C(=C=C1C(=O)N2C(C(=O)OC(c3ccccc3)c3ccccc3)=C(COC(C)=O)CS(=O)(=O)[C@H]12)C(C)(C)C [Compound 5b] | – | 13.5 | –
COC(=O)/C=C1/C(=O)N2C(C(=O)OC(c3ccccc3)c3ccccc3)=C(COC(C)=O)CS(=O)(=O)[C@H]12 [Compound 25, Benzhydryl 7-[(Z)-(methoxycarbonyl)methylene]cephalosporanate sulfone] | > 10 | 8.9 | –
CC(=O)OCC1=C(C(=O)OC(c2ccccc2)c2ccccc2)N2C(=O)C(=C=CBr)[C@H]2SC1 [Compound 6, Benzhydryl 7-(-bromovinylidene)cephalosporanate] | > 10 | 5.4 | –
CC(=O)OCC1=C(C(=O)OC(c2ccccc2)c2ccccc2)N2C(=O)/C(=C/c3ccccc3)[C@H]2S(=O)(=O)C1 [Compound 10, Benzhydryl 7-[(Z)-benzylidene]cephalosporanate sulfone] | > 10 | 8.9 | –
CC(=O)/C=C1/C(=O)N2C(C(=O)OC(c3ccccc3)c3ccccc3)=C(COC(C)=O)CS(=O)(=O)[C@H]12 [Compound 29, Benzhydryl 7-[(Z)-acetylmethylene]cephalosporanate sulfone] | 6 | > 10 | –
CO[C@H]1C(=O)N2C(C(=O)OC(c3ccccc3)c3ccccc3)=C(COC(C)=O)CS[C@H]12 [Compound 36, reference compound] | – | 5.35 | –
CC(=O)OCC1=C(C(=O)OC(c2ccccc2)c2ccccc2)N2C(=O)/C(=C/C=O)[C@H]2SC1 [Compound 19, Benzhydryl 7-[(Z)-formylmethylene]cephalosporanate] | 5.2 | 13.9 | –
CC(=O)OCC1=C(C(=O)OC(c2ccccc2)c2ccccc2)N2C(=O)/C(=C/c3ccccn3)[C@H]2SC1 [Compound 20, Benzhydryl 7-[(Z)-(2'-pyridyl)methylene]cephalosporanate] | > 10 | > 10 | –
CC(=O)OCC1=C(C(=O)OC(c2ccccc2)c2ccccc2)N2C(=O)C(=C(Cl)Cl)[C@H]2SC1 [Compound 22, Benzhydryl 7-[dichloromethylene]cephalosporanate] | > 10 | 6.41 | very potent, irreversible inhibitors of HLE
CC(=O)/C=C1/C(=O)N2C(C(=O)OC(c3ccccc3)c3ccccc3)=C(COC(C)=O)CS[C@H]12 [Compound 28, Benzhydryl 7-[(Z)-acetylmethylene]cephalosporanate] | > 10 | 4.27 | leveling off and allowing the enzyme to regain its activity
CC(=O)OCC1=C(C(=O)OC(c2ccccc2)c2ccccc2)N2C(=O)/C(=C\Br)[C@H]2S(=O)(=O)C1 [Compound 16, Benzhydryl 7-[(E)-bromomethylene]cephalosporanate sulfone] | 2.49 | 3.36 | leveling off and allowing the enzyme to regain its activity
CC(=O)OCC1=C(C(=O)OC(c2ccccc2)c2ccccc2)N2C(=O)/C(=C/C(=O)OC(C)(C)C)[C@H]2S(=O)(=O)C1 [Compound 18, Benzhydryl 7-[(Z)-(t-butoxycarbonyl)methylene]-cephalosporanate sulfone] | > 10 | 7.1 | –
CC(=O)OCC1=C(C(=O)OC(c2ccccc2)c2ccccc2)N2C(=O)/C(=C/C#N)[C@H]2S(=O)(=O)C1 [Compound 31, Benzhydryl 7-[(Z)-cyanomethylene]cephalosporanate sulfone] | – | 0.49 | –
CC(=O)OCC1=C(C(=O)OC(c2ccccc2)c2ccccc2)N2C(=O)/C(=C\c3ccccc3)[C@H]2SC1 [Compound 11, Benzhydryl 7-[(E)-benzylidene]cephalosporanate] | > 10 | > 10 | –
CC(=O)OCC1=C(C(=O)OC(c2ccccc2)c2ccccc2)N2C(=O)C(=C=CC(C)(C)C)[C@H]2S(=O)(=O)C1 [Compound 5a, Benzhydryl 7-t-butylvinylidene cephalosporanate sulfone] | > 10 | 10.5 | –
CO[C@H]1C(=O)N2C(C(=O)OC(c3ccccc3)c3ccccc3)=C(COC(C)=O)CS(=O)(=O)[C@H]12 [Compound 37, reference compound] | – | 0.28 | –

Compound | IC50 [1] [µM] | IC50 [2] [µM] | residual HLE activity / inhibition as a function of time [3]
CC(=O)OCC1=C(C(=O)OC(c2ccccc2)c2ccccc2)N2C(=O)/C(=C/CO)[C@H]2SC1 [Compound 26, Benzhydryl 7-[(Z)-(hydroxymethyl)methylene]cephalosporanate] | > 10 | > 10 | –
CC(=O)OCC1=C(C(=O)OC(c2ccccc2)c2ccccc2)N2C(=O)/C(=C/c3ccccn3)[C@H]2S(=O)(=O)C1 [Compound 21, Benzhydryl 7-[(Z)-(2'-pyridyl)methylene]cephalosporanate sulfone] | > 10 | > 10 | –
CC(=O)OCC1=C(C(=O)OC(c2ccccc2)c2ccccc2)N2C(=O)/C(=C\c3ccccc3)[C@H]2S(=O)(=O)C1 [Compound 12, Benzhydryl 7-[(E)-benzylidene]cephalosporanate sulfone] | > 10 | 6 | –
CON(C)C(=O)/C=C1/C(=O)N2C(C(=O)OC(c3ccccc3)c3ccccc3)=C(COC(C)=O)CS(=O)(=O)[C@H]12 [Compound 27, Benzhydryl 7-[(Z)-N-methoxy-N-methylaminocarbonylmethylene]cephalosporanatesulfone] | > 10 | > 10 | –
CC(=O)OCC1=C(C(=O)OC(c2ccccc2)c2ccccc2)N2C(=O)[C@@H](N)[C@H]2SC1 [Compound 1, Benzhydryl 7β-aminocephalosporanate] | > 10 | > 10 | –
CC(=O)OCC1=C(C(=O)OC(c2ccccc2)c2ccccc2)N2C(=O)C(=C(Br)Br)[C@H]2SC1 [Compound 13, Benzhydryl 7-[dibromomethylene]cephalosporanate] | 6.42 | 0.26 | extremely rapid and efficient inhibitor of HLE
CC(=O)OCC1=C(C(=O)OC(c2ccccc2)c2ccccc2)N2C(=O)C[C@H]2SC1 [Compound 33, reference compound] | > 10 | > 10 | –
CC(=O)OCC1=C(C(=O)OC(c2ccccc2)c2ccccc2)N2C(=O)C(=C=CC(C)(C)C)[C@H]2SC1 [Compound 4, Benzhydryl 7-(t-butylvinylidene)cephalosporanate] | 5.5 | > 10 | –
C=C=C1C(=O)N2C(C(=O)OC(c3ccccc3)c3ccccc3)=C(COC(C)=O)CS[C@H]12 [Compound 7, Benzhydryl 7-vinylidenecephalosporanate] | 0.67 | 9 | –
C=C=C1C(=O)N2C(C(=O)OC(c3ccccc3)c3ccccc3)=C(COC(C)=O)CS(=O)(=O)[C@H]12 [Compound 8, Benzhydryl 7-vinylidenecephalosporanate sulfone] | 4.1 | 6.1 | –
CC(=O)OCC1=C(C(=O)OC(c2ccccc2)c2ccccc2)N2C(=O)C(=C(Cl)Cl)[C@H]2S(=O)(=O)C1 [Compound 23, Benzhydryl 7-[dichloromethylene]cephalosporanate sulfone] | > 10 | 2.56 | –
COC(=O)/C(Br)=C1/C(=O)N2C(C(=O)OC(c3ccccc3)c3ccccc3)=C(COC(C)=O)CS[C@H]12 [Compound 32, Benzhydryl 7-{[(E)-bromo-(Z)-methoxycarbonyl]methylidene} cephalosporanate] | – | 0.21 | –
CC(=O)OCC1=C(C(=O)OC(c2ccccc2)c2ccccc2)N2C(=O)/C(=C/C(=O)OC(C)(C)C)[C@H]2SC1 [Compound 17, Benzhydryl 7-[(Z)-t-butoxycarbonylmethylene]cephalosporanate] | – | > 10 | –
CC(=O)OCC1=C(C(=O)OC(c2ccccc2)c2ccccc2)N2C(=O)/C(=C\Br)[C@H]2SC1 [Compound 15, Benzhydryl 7-[(E)-bromomethylene]cephalosporanate] | 9.6 | 0.39 | very potent, irreversible inhibitors of HLE
COC(=O)/C=C1/C(=O)N2C(C(=O)OC(c3ccccc3)c3ccccc3)=C(COC(C)=O)CS[C@H]12 [Compound 24, Benzhydryl 7-[(Z)-methoxycarbonylmethylene]cephalosporanate] | > 10 | 2.6 | very potent, irreversible inhibitors of HLE
CC(=O)OCC1=C(C(=O)OC(c2ccccc2)c2ccccc2)N2C(=O)/C(=C/c3ccccc3)[C@H]2SC1 [Compound 9, benzhydryl 7-[(Z)-benzylidene] cephalosporanate] | > 10 | > 10 | –
CC(=O)OCC1=C(C(=O)OC(c2ccccc2)c2ccccc2)N2C(=O)C(=C(Br)Br)[C@H]2S(=O)(=O)C1 [Compound 14, Benzhydryl 7-[dibromomethylene]cephalosporanate sulfone] | 4.8 | 2.07 | very potent, irreversible inhibitors of HLE
